From patent US20260250629A1, “STEM CELLS BASED THREE-DIMENSIONAL EMBRYO MODEL” (CAMBRIDGE ENTERPRISE LIMITED, priority 2023, published 2026)

What was measured:
Assay type in all cases: cell-based, human
[1] = test system: hEOs; experiment: Self-organization of hES cells into 3D hEOs, static 96-well culture
Description: Inventors used W15-NANOS3-tdTomato and RUES2-GLR hES cell lines in this study. All hES cells were cultured in Essential 8™ (E8) medium (Life Technologies, A1517001) on freshly prepared Vitronectin (Fisher Scientific, A31804) coated 6-well plates in humidified chambers at 37° C. and 5% CO2. hES cells were passaged every 3-4 days (once they reached ~70% confluency) using 0.5 mM EDTA (ThermoFisher Scientific, AM9260G) in homemade phosphate buffer saline (1×PBS). The transient state of cells was induced, as described previously, with slight modifications^19. In brief, hES cell colonies (70% confluent) were dissociated into single cells using 0.25% Trypsin-EDTA (Life Technologies, 25200072), seeded (600,000 cells/well) into freshly prepared Vitronectin-coated 6-well plates (~30 mins). The cells were cultured for 24 h in the presence of Advanced RPMI 1640 (Life Technologies, 61870-036) supplemented with B27 supplement (1%) (ThermoFisher Scientific, 17504044), 0.1 mM NEAA, 100 U/ml Penicillin, 0.1 mg/ml Streptomycin, 2 mM L-glutamine, Activin A (1 μg/ml) (In-house produced by Biochemistry Department, University of Cambridge), Chiron (3 μM) (CHIR99021, TOCRIS 4423/10) and Rho-associated, coiled-coil containing protein kinase (ROCK) inhibitor (Rocki: 10 μM); Y27632) (hereafter called induction medium, IM). […]

[2] = test system: hPGCLCs; experiment: hPGCLC specification in hEOs, NANOS3-tdTomato reporter
Description: Inventors used W15-NANOS3-tdTomato and RUES2-GLR hES cell lines in this study. All hES cells were cultured in Essential 8™ (E8) medium (Life Technologies, A1517001) on freshly prepared Vitronectin (Fisher Scientific, A31804) coated 6-well plates in humidified chambers at 37° C. and 5% CO2. hES cells were passaged every 3-4 days (once they reached ~70% confluency) using 0.5 mM EDTA (ThermoFisher Scientific, AM9260G) in homemade phosphate buffer saline (1×PBS). The transient state of cells was induced, as described previously, with slight modifications^19. In brief, hES cell colonies (70% confluent) were dissociated into single cells using 0.25% Trypsin-EDTA (Life Technologies, 25200072), seeded (600,000 cells/well) into freshly prepared Vitronectin-coated 6-well plates (~30 mins). The cells were cultured for 24 h in the presence of Advanced RPMI 1640 (Life Technologies, 61870-036) supplemented with B27 supplement (1%) (ThermoFisher Scientific, 17504044), 0.1 mM NEAA, 100 U/ml Penicillin, 0.1 mg/ml Streptomycin, 2 mM L-glutamine, Activin A (1 μg/ml) (In-house produced by Biochemistry Department, University of Cambridge), Chiron (3 μM) (CHIR99021, TOCRIS 4423/10) and Rho-associated, coiled-coil containing protein kinase (ROCK) inhibitor (Rocki: 10 μM); Y27632) (hereafter called induction medium, IM).
Transient cells induced in IM for 24 h were dissociated into single cells using 0.25% Trypsin-EDTA and seeded (400 cells/well) into Corning Clear Ultra-low attachment 96-well plates (Fisher Scientific 10023683). […]
hEOs cultured on ultra-low attachment 96-well plates were collected, washed in 1×PBS and fixed in 4% PFA for 3-4 hours at room temperature or 1% PFA overnight at 4° C. hEOs were embedded in OCT mounting medium (VWR-361603E) and incubated in dry ice for 30 min before sectioning the frozen samples. An antigen retrieval procedure was performed to remove the fluorescence reporter from W15-NANOS3-tdTomato hES cell line, where required. […]

[3] = test system: niSTEMBRYOs; experiment: Red hemogenic zones in niSTEMBRYOs
[4] = test system: hEOs; experiment: Scaled static culture of hEOs in Aggrewell 400 plates
Description: (§1) 24 well Aggrewell™ 400 plates (StemCell Technologies 34411) were pre-treated with 500 μl/well anti-adherence medium and centrifuged at 1300×g for 5 mins. After aspirating the medium, the wells were rinsed with 2 ml warm basal medium. Then, the medium was replaced by 1 ml warm organisation medium (OM). The plate was incubated at 37° C. at 5% CO2 until the cells were ready for seeding. OM comprised of Essential 6 (E6) medium (Life Technologies, A1516401) supplemented with 0.25 μM CH and ROCKi (10 μM). Pre-induced cells were dissociated using 0.25% Trypsin-EDTA, and 480,000 cells were seeded into each well of an Aggrewell™ 400 Plate at the rate of 400 cells/microwell and were centrifuged at 300×g for 3 mins. The final volume of medium in each well was 2 ml. Cells were cultured in Aggrewell plates at 37° C. at 5% CO2 for 4 days. The OM (without ROCKi) was replaced every day. On day 5, hEOs were manually picked and transferred to bottles for rotary culture in a bioreactor. From Day 5, hEOs were cultured in OM supplemented with 1 μM SB431542 at hypoxic conditions (5% O2, 5% CO2 and without ROCKi). The hEOs were collected at different time points for further analysis.

[5] = test system: niSTEMBRYOs; experiment: Contracting cardiomyocytes in niSTEMBRYOs
[6] = test system: hEOs; experiment: Kinetic rotary culture of hEOs: growth and morphology
Description: as §1, with “analysis. Medium containing human cord serum (HCS) (also known as ex-utero culture medium, EUCM) was used as described earlier^64. […]” for “analysis.”

[7] = test system: hEOs; experiment: Frequency of beating hEOs (periodic contractions)
Description: 24 well Aggrewell™ 400 plates (StemCell Technologies 34411) were pre-treated with 500 μl/well anti-adherence medium and centrifuged at 1300×g for 5 mins. After aspirating the medium, the wells were rinsed with 2 ml warm basal medium. Then, the medium was replaced by 1 ml warm organisation medium (OM). The plate was incubated at 37° C. at 5% CO2 until the cells were ready for seeding. OM comprised of Essential 6 (E6) medium (Life Technologies, A1516401) supplemented with 0.25 μM CH and ROCKi (10 μM). Pre-induced cells were dissociated using 0.25% Trypsin-EDTA, and 480,000 cells were seeded into each well of an Aggrewell™ 400 Plate at the rate of 400 cells/microwell and were centrifuged at 300×g for 3 mins. The final volume of medium in each well was 2 ml. Cells were cultured in Aggrewell plates at 37° C. at 5% CO2 for 4 days. The OM (without ROCKi) was replaced every day. On day 5, hEOs were manually picked and transferred to bottles for rotary culture in a bioreactor. From Day 5, hEOs were cultured in OM supplemented with 1 μM SB431542 at hypoxic conditions (5% O2, 5% CO2 and without ROCKi). The hEOs were collected at different time points for further analysis. Medium containing human cord serum (HCS) (also known as ex-utero culture medium, EUCM) was used as described earlier^64. In brief, 25% human cord serum was mixed with 25% DMEM (Gibco 11880) (low glucose, no phenol red, no glutamine, no HEPES) and 50% rat serum. Glutamine and Penicillin-Streptomycin (50 units/ml penicillin) were added to the medium supplemented with 4 mg/ml glucose and HEPES (GIBCO 15630056, 11 mM) and 1 mM Sodium Pyruvate. Human cord serum was provided by the Cambridge Blood and Stem Cell Biobank, which is supported by the Cambridge NIHR Biomedical Research Centre, Wellcome Trust-MRC Stem Cell Institute, UK. Rat serum was heat-inactivated for 30 min at 56° C. and filtered through 0.22 μm PVDF filter, whereas human serum was heat inactivated at 55° C. for 45 minutes and sterilized through filtration by 0.22 μm filters. […]

[8] = test system: niSTEMBRYOs; experiment: Lineage marker expression and hindgut formation in niSTEMBRYOs
[9] = test system: hEOs; experiment: Frequency of hEOs with red inclusions (haematopoiesis)
Description: as §1, with “On day 5, hEOs were manually picked and transferred to bottles for rotary culture in a bioreactor. From Day 5, hEOs were cultured in OM supplemented with 1 μM SB431542 at hypoxic conditions (5% O2, 5% CO2 and without ROCKi).” left out

[10] = test system: niSTEMBRYOs; experiment: niSTEMBRYO static and kinetic culture: growth and morphology; details: kinetic culture with SB

Structure (SMILES): Cc1c[nH]c(-c2cnc(NCCNc3ccc(C#N)cn3)nc2-c2ccc(Cl)cc2Cl)n1 [CH, CHIR99021]
- aggregates elongated along the longitudinal axis ([1]; 0.25 μM CH, after two days, 1620/1800, N=10 experiments): more than 90%
- self-organization of aggregates into 3D elongated structures ([1]; CH 0.25 μM, 0.5 μM and 1.0 μM): sufficient to promote self-organization into 3D elongated structures
- elongation of hEOs and hPGCLC specification (NANOS3-tdTomato reporter) ([2]; CH 0.25 μM, from D2 until D8, without exogenous BMP2/4): both the elongation of hEOs and the specification of hPGCLCs
- detection of hPGCLCs ([2]; high concentration of CH (1.0 μM), D3 hEOs): No hPGCLCs were detected
- appearance of red hemogenic zones ([3]; aggregates cultured in the presence of CH or HCS alone): did not appear
- elongation of the aggregates ([4]; four days in the presence of CH, by day 4, 1845/3100, N=4 experiments): ~ 60%
- periodic contractions ([5]; niSTEMBRYOs cultured with HCS or with CH alone): not evident

Structure (SMILES): c1ccc2c(-c3cnn4cc(-c5ccc(N6CCNCC6)cc5)cnc34)ccnc2c1 [LDN193189]
- effect of BMP inhibition on specification of hPGCLCs ([2]; inhibitor present on D1, D2 or D3): affected the specification of hPGCLCs when present on D1 but not on D2 or D3

Structure (SMILES): NC(=O)c1ccc(-c2nc(-c3ccc4c(c3)OCO4)c(-c3ccccn3)[nH]2)cc1 [SB43, SB431542]
- hEO size ([6]; kinetic culture with 1 μM SB43, with or without 10% Matrigel, after four days): doubled in size
- hEO size relative to static culture on D4 ([6]; kinetic culture with SB, after 22 days): quadrupled in size
- hEOs with periodic and highly localised contractions ([7]; D7, kinetic culture with SB): ~ 10%
- hEOs with periodic and highly localised contractions ([7]; D8, kinetic culture with SB): ~70%
- decrease in the number of beating hEOs ([7]; SB in static and kinetic cultures vs SB only during kinetic cultures, D8, p<0.0001): 40%
- haematopoiesis in niSTEMBRYOs ([3]; SB43 from day 4 onwards (SB late)): promoted haematopoiesis
- red hemogenic phenotype ([3]; SB from D1 (SB early)): no red hemogenic phenotype was observed
- niSTEMBRYOs developing visible red hemogenic zones ([3]; SB in rotary cultures, from D14 onwards, N=196/1170, 5 experiments): ~ 16%
- hindgut (SOX17, SOX2 tubular structure) ([8]; SB from D1 (SB early)): appearance of hindgut
- expression of mesodermal marker TBXT ([8]; SB from D1 (SB early), by D4): downregulated
- hindgut ([8]; SB from D4 (SB late)): absent
- increase in the frequency of elongated hEOs ([4]; SB in the initial four-day static cultures, D4, p=0.0016): 15%
- niSTEMBRYOs with periodic and highly localised contractions ([5]; D8, kinetic culture with SB): ~ 72%
- appearance of contracting cardiomyocytes ([5]; SB from D1 (SB early) vs SB from D4 (SB late)): not affected
- niSTEMBRYOs with periodic and highly localised contractions ([5]; after 7 days, kinetic culture with SB): ~ 10%
- hEOs containing large internal red zones ([9]; SB in rotary cultures, by day 15): ~ 14%
- red inclusion phenotype ([9]; SB included in the 4D static culture): entirely lost
- aggregate size ([10]; after 14 days): quadrupling
- aggregate size ([10]; after four days): doubling in size
